# Laboratory results as given in patent US6375979B2 (Somerset Pharmaceuticals, Inc., priority 1995, dated 2002).
# Where “and” joins values, the source holds several entries; their conditions need not be identical. Identical values can stand only once. Like-named read-outs stand apart in the source and are kept apart here.
# Experiments:
# [1] = target: T1, dopamine re-uptake system (Rattus norvegicus, UniProt P23977); test: Inhibition of dopamine re-uptake in rat neostriatal synaptosome preparation; type: biochemical
# T1 construct: (synaptosome preparation) was obtained form fresh rat neostriatal brain tissue; from tissue; host or cells: rat neostriatum, synaptosome preparation
# T1 sequence (P23977 whole entry): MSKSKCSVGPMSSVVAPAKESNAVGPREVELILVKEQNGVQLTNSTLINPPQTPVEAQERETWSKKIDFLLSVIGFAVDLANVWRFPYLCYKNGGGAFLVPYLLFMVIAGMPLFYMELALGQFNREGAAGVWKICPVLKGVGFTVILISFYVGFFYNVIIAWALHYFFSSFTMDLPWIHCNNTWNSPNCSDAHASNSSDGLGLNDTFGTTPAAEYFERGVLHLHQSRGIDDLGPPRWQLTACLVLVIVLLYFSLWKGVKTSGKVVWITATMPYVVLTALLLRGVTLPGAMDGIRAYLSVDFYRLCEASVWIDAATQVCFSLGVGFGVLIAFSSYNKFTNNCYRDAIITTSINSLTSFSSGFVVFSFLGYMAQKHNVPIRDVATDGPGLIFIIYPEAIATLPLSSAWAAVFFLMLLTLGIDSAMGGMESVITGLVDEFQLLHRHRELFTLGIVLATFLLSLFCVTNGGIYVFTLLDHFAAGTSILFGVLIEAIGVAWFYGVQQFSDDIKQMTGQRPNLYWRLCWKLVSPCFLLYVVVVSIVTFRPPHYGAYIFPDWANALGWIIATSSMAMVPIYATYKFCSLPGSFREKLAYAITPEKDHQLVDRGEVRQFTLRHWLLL
# Description: An in vitro nerve terminal preparation (synaptosome preparation) was prepared using fresh rat neostriatal tissue.
# FIG. 19: Determination of IC50 Values for Inhibition of Dopamine Re-Uptake.
# An in vitro nerve-terminal preparation (synaptosome preparation) was obtained form fresh rat neostriatal brain tissue. Transport by dopamine nerve-terminals was estimated by measuring the uptake of tritiated dopamine.
# [2] = system: cultured rat mesencephalic cells; test: Medium change (glutamate receptor dependent) model of cell death: [3H]-dopamine uptake; settings: for neuron protection by measurement of dopamine uptake (FIG. 15): glutamate receptor dependent model
# Description: Preparations are then added to 10 ml Ecoscint (National Diagnostics) and counted in a scintillation spectrometer.
# (§2) In these experiments, cells were plated and allowed to stabilize for several days.
# [3] = system: cultured rat mesencephalic cells; test: Medium change (glutamate receptor dependent) model of cell death: TH positive cells
# Description: as §2
# [4] = system: TH positive cells in cultured E-14 embryonic mesencephalic cells
# [5] = target: T2, MAO-A (Rattus norvegicus, UniProt P21396)
# T2 sequence (P21396 1-526): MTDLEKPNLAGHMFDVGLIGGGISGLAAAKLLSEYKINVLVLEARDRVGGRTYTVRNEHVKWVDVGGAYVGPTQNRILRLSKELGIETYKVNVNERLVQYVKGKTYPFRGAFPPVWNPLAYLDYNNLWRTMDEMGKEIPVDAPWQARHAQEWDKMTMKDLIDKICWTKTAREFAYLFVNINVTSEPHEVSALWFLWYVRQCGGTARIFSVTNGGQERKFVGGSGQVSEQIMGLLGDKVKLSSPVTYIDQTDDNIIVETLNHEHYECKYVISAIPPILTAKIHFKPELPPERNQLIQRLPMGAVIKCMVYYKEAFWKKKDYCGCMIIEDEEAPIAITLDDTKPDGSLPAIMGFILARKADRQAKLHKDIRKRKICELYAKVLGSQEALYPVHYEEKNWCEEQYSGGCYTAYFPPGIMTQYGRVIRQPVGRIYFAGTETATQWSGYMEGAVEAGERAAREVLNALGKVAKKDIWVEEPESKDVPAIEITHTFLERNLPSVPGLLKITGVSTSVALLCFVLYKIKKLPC
# [6] = system: cultured embryonic mesencephalic cells; test: Neuronal survival: [3H]dopamine uptake by cultured mesencephalic cells; type: cell-based, rat
# From the text: The amount of uptake by the cultured brain cells corresponds to axonal growth.
# [7] = system: interleukin-2 production; test: Concanavalin A-induced interleukin-2 production by spleen cells of treated old rats; type: in vivo, rat; settings: ip daily 60 days
# Description: The present experiments utilized a rat model to examine the ability of R(−)DMS and S(+)DMS to restore immunological function. Rats were divided into the following experimental groups:
# (§1) Rats were administered saline or test agent ip, daily for 60 days. They were then maintained for an additional “wash out” period of 10 days during which time no treatment was given. At the end of this time, animals were sacrificed and their spleens were removed. The spleen cells were then assayed for a variety of factors which are indicative of immune system function. Specifically, standard tests were employed to determine the following:
# 2) in vitro concanavalin A-induced production of interleukin-2;
# [8] = system: cultured rat mesencephalic cells exposed to NMDA; test: NMDA model of cell death: [3H]-dopamine uptake; settings: 50 μM, 100 μM NMDA exposure
# [9] = system: cultured rat mesencephalic cells exposed to NMDA; test: NMDA model of cell death: TH immunochemistry; settings: 50 μM, 100 μM NMDA exposure
# Description: Rat mesencephalic cell cultures were exposed to 100 μM NMDA and incubated as described above in connection with FIG. 16.
# [10] = target: T3, MAO-A (Cavia porcellus, UniProt H0UVA2); test: MAO-A inhibition in guinea pig hippocampal homogenates in vitro; type: biochemical; set-up: by human platelets and/or guinea pig hippocampal homogenates; from tissue; host or cells: guinea pig hippocampus homogenate
# T3 sequence (H0UVA2 1-461): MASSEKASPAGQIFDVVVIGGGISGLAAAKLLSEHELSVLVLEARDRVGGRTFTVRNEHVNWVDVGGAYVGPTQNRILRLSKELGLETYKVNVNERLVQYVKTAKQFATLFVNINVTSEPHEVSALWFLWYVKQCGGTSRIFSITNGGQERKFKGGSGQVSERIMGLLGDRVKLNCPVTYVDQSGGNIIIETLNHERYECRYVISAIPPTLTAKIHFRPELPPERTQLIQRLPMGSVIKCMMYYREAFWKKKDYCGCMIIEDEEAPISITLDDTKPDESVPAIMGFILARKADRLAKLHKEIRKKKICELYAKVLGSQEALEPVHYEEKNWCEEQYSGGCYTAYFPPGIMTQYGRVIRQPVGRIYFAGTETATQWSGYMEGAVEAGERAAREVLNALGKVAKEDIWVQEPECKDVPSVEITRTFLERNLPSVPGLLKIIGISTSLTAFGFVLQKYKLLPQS
# From the text: Human platelet MAO is comprised exclusively of the type-B isoform of the enzyme. […] The present study also examined the two enantiomers of DMS for inhibitory activity with respect to the MAO-A and MAO-B in guinea pig hippocampal tissue. Guinea pig brain tissue is an excellent animal model for studying brain dopamine metabolism, the enzyme kinetics of the multiple forms of MAO and the inhibitory properties of novel agents that interact with these enzymes. The multiple forms of MAO in this animal species show similar kinetic properties to those found in human brain tissue. Finally, the test agents were administered to guinea pigs and the extent to which they might act as inhibitors of brain MAO in vivo was assessed.
# In vitro: The test system utilized the in vitro conversion of specific substrates of MAO-A (^14C-serotonin) and MAO-B (^14C-phenylethylamine) by human platelets and/or guinea pig hippocampal homogenates. […] A percent inhibition was calculated from these values.
# [11] = system: γ-interferon production; test: γ-interferon production by concanavalin A-stimulated spleen cells of treated old rats; type: in vivo, rat; settings: old rats, ip daily 60 days; 1.0 mg/kg (for DMS enantiomers)
# Description: Rats were divided into the following experimental groups:
# as §1
# 1) in vitro production of γ-interferon by concanavalin A-stimulated spleen cells;
# [12] = 50 μM, medium change model, listed as Deprenyl
# [13] = 1.0 mg/kg (for DMS enantiomers)
structure (smiles),measurement,setting,value
"NCCc1ccc(O)c(O)c1 [Dopamine, dopamine, reference compound]","3H-Dopamine uptake, % Reduction x ± SEM",[1]; 1 μM,52.0 ± 4.9%
same,"3H-Dopamine uptake, % Reduction x ± SEM",[1]; 10 μM,80.9 ± 0.4%
"C[C@]12N[C@H](Cc3ccccc31)c1ccccc12 [MK-801, reference compound]",neuron protection by measurement of dopamine uptake (FIG. 15),[2]; 10 μM,protection was also obtained
"C#CCN(C)Cc1ccccc1 [Pargyline, pargyline, reference compound]",neuron protection by measurement of dopamine uptake (FIG. 15),"[2]; at the concentrations used (0.5, 5 and 50 μM)",did not appear to offer any protection
"C#CCN(C)[C@H](C)Cc1ccccc1 [Selegiline, R-(−)-N-methyl-N-(prop-2-ynyl)-2-aminophenylpropane, reference compound]","TH Immunochemistry, % control, Mean","[3]; 50 μM, medium change model",130.6%
same,"TH Immunochemistry, cells/cm^2, Mean","[3]; 50 μM, medium change model",344.17 cells/cm^2
same,"TH Immunochemistry, % control, individual cultures",[3]; [12],146.0% and 124.2% and 121.4%
same,"TH Immunochemistry, cells/cm^2, individual cultures",[3]; [12],385.0 cells/cm^2 and 327.5 cells/cm^2 and 320.0 cells/cm^2
same,survival of dopaminergic neurons (FIGS. 11 and 12),"[3]; 0.5, 5.0 or 50 μM, 4 days of daily medium changes, TH staining and dopamine uptake",promotes the survival of dopaminergic neurons
same,"Survival of TH positive cells, % cont.",[4]; 0.5 μM,185.81%
same,"Survival of TH positive cells, Mean cells/cm^2",[4]; 0.5 μM,201.70 ± 25.01 cells/cm^2
same,"Survival of TH positive cells, % cont.",[4]; 5 μM,218.33%
same,"Survival of TH positive cells, Mean cells/cm^2",[4]; 5 μM,237.00 ± 12.59 cells/cm^2
same,"Survival of TH positive cells, % cont.",[4]; 50 μM,269.25%
same,"Survival of TH positive cells, Mean cells/cm^2",[4]; 50 μM,292.28 ± 17.41 cells/cm^2
same,inhibition,[5]; 0.3 µM,9.75%
same,inhibition,[5]; 1 μM,32.5%
same,inhibition,[5]; 3 µM,65.5%
same,inhibition,[5]; 10 μM,97.8%
same,"3H-Dopamine Uptake, % Cont",[6]; 0.5 μM,120.6%
same,"3H-Dopamine Uptake, Mean",[6]; 0.5 μM,14452 ± 212
same,"3H-Dopamine Uptake, % Cont",[6]; 5 μM,137.5%
same,"3H-Dopamine Uptake, Mean",[6]; 5 μM,16468 ± 576
same,"3H-Dopamine Uptake, % Cont",[6]; 50 μM,275.5%
same,"3H-Dopamine Uptake, Mean",[6]; 50 μM,33018 ± 1317
same,IL-2 % control,[7]; [13],376%
same,IL-2 U/ml mean,[7]; [13],73.78 U/ml
same,IL-2 U/ml mean,[7]; […] (for R(−)DMS by group order),109.6 U/ml
same,"Dopamine uptake, % control, Mean",[8],257.4%
same,"Dopamine uptake, counts/min, Mean",[8],17393.8 counts/min
same,"Dopamine uptake, % control, individual cultures",[8]; listed as Deprenyl,228.1% and 273.5% and 251.0% and 259.8% and 274.9%
same,"Dopamine uptake, counts/min, individual cultures",[8]; listed as Deprenyl,15410 counts/min and 18479 counts/min and 16958 counts/min and 17550 counts/min and 18572 counts/min
same,neuron protection by measurement of dopamine uptake (FIG. 15),[2]; 50 μM,neuron protection
same,"Dopamine uptake, % control, Mean","[2]; 50 μM, medium change model",170.1%
same,"Dopamine uptake, counts/min, Mean","[2]; 50 μM, medium change model",35714 counts/min
same,"Dopamine uptake, % control, individual cultures",[2]; [12],181.2% and 162.6% and 175.3% and 161.3%
same,"Dopamine uptake, counts/min, individual cultures",[2]; [12],38053 counts/min and 34130 counts/min and 36810 counts/min and 33863 counts/min
same,"TH Immunochemistry, % control, Mean",[9],234.3%
same,"TH Immunochemistry, cells/cm^2, Mean",[9],220.63 cells/cm^2
same,"TH Immunochemistry, % control, individual cultures",[9]; listed as Deprenyl,244.2% and 305.3% and 199.1% and 188.5%
same,"TH Immunochemistry, cells/cm^2, individual cultures",[9]; listed as Deprenyl,230.0 cells/cm^2 and 287.5 cells/cm^2 and 187.5 cells/cm^2 and 177.5 cells/cm^2
same,"3H-Dopamine uptake, % Reduction x ± SEM",[1]; 1 μM,13.9 ± 4.7%
same,"3H-Dopamine uptake, % Reduction x ± SEM",[1]; 10 μM,16.3 ± 3.8%
same,"3H-Dopamine uptake, % Reduction x ± SEM",[1]; 100 μM,7.0 ± 3.6%
same,"3H-Dopamine uptake, % Reduction x ± SEM",[1]; 100 μM (last row of each agent),59.8 ± 1.0%
same,IC50,[10],2500 nM
same,inhibition at 0.3 µM,"[10]; 300 nM, guinea pig hippocampus, read-out: MAO-A % Inhibition x = SEM",11.9 ± 2.4%
same,inhibition at 1 µM,"[10]; 1 μM, guinea pig hippocampus, read-out: MAO-A % Inhibition x = SEM",22.1 ± 1.2%
same,inhibition at 3 µM,"[10]; 3 μM, guinea pig hippocampus, read-out: MAO-A % Inhibition x = SEM",53.5 ± 2.7%
same,reduction in potency compared to selegiline (value in parentheses),"[10]; MAO-A IC50, guinea pig hippocampal cortex",1
same,IFN-γ % control,[11],550%
same,IFN-γ U/ml mean,[11],1934 U/ml
"C#CCN(C)CCCOc1ccc(Cl)cc1Cl [clorgyline, reference compound]",neuron protection by measurement of dopamine uptake (FIG. 15),[2]; 50 μM,protected
